# Reference: patent US20130115589A1, “Pharmaceutical Composition for Treatment and Prevention of Herpes Virus Infections” (THE UNIVERSITY OF TOKYO, priority 2010, published 2013)
# Like-named read-outs stand apart in the source and are kept apart here.
# Key:
# HSV-1 GFP [1] = format: cell-based, Herpes simplex virus 1 (HSV-1); settings: for HSV entry into Vero cells (relative fluorescence intensity): 30 minutes pretreatment, ML-7 20 μM, ACC 40 μM
# influenza virus [2] = format: cell-based
# influenza virus [3] = format: cell-based; remark: listed apart in the source
# HSV-1 GFP [4] = format: cell-based, Herpes simplex virus 1 (HSV-1)
# HSV-1(F) = assay: Murine corneal infection model; format: in vivo, ICR mice
# Procedure: After the cornea of ICR mice (female/5-week-old) was slightly injured with an injection needle, a medium containing or not containing 20 μM ML-7 was instilled in the eye twice with an interval of 10 minutes. After incubation for 10 minutes, an HSV-1(F) strain was inoculated at 5×10^5 PFU/eye. The virus titer in the tear, symptoms of keratitis, and survival of mice were studied.
# After the cornea of 28 ICR mice (female/5-week-old) per group was injured with an injection needle, a 20 μM medium containing or not containing ML-7 and 5×10^5 HSV-1(F) diluted in Medium199 were simultaneously instilled in their eye, followed by observation for 21 days.
# After the cornea of 28 ICR mice (female/5-week-old) per group was injured with an injection needle, a 50 μM BAPTA-AM was instilled in their eye twice with an interval of 10 minutes. After incubation for 10 minutes, 5×10^5 HSV-1(F) diluted in Medium 199 was instilled in their eye, followed by observation for 21 days. In Mock-treated group, 0.2% DMSO in Medium 199 was used instead of 50 μM BAPTA-AM.
# NMHC-IIA = format: cell-based; settings: Vero cells pretreated with ML-7
# NMHC-IIB = NMHC-IIB at the cell surface of HSV-1(F)-infected Cos-1 cells, biotinylation, avidin precipitation, immunoblotting; settings: Cos-1 cells pretreated with ML-7, wild-type HSV-1(F)
# HSV-2 GFP = HSV-2 GFP infection of Vero cells, flow cytometry; format: cell-based, Herpes simplex virus 2; settings: Vero cells pretreated with ML-7
# phosphorylation of RLC = assay: Phosphorylation of RLC in Vero cells exposed to HSV-1, immunoblotting; settings: 20 μM ML-7, MOI=50
smiles,measurement,setting,value
"Nc1nc2c(ncn2COCCO)c(=O)[nH]1 [ACC, acyclovir]",HSV entry into Vero cells (relative fluorescence intensity),"HSV-1 GFP [1]; HSV-1 GFP MOI=1, six hours after infection",not inhibited
CC(=O)OCOC(=O)CN(CC(=O)OCOC(C)=O)c1ccccc1OCCOc1ccccc1N(CC(=O)OCOC(C)=O)CC(=O)OCOC(C)=O [BAPTA-AM],influence on influenza virus infection,"influenza virus [2]; Cos-1 cells, BAPTA-AM",not observed
same,"relative MFI, influenza virus",influenza virus [3],not influenced
same,"MFI, HSV-1 GFP",HSV-1 GFP [4],decreased in a BAPTA-AM concentration dependent manner
same,survival rate,"HSV-1(F); 50 μM BAPTA-AM instilled before infection, observation 21 days, vs Mock-treated group",significantly high
same,"mean fluorescence intensity (MFI), HSV-1 GFP",HSV-1 GFP [1],decreased in a BAPTA-AM concentration dependent manner
O=S(=O)(c1cccc2c(I)cccc12)N1CCCNCC1 [ML-7],increase in the concentration of NMHC-IIA in the vicinity of the cell membrane upon virus entry,NMHC-IIA,inhibited
same,influenza virus infection,influenza virus [2]; Cos-1 cells pretreated with ML-7,not influenced
same,influenza virus infection,influenza virus [3]; Vero cells pretreated with ML-7,not influenced
same,concentration of NMHC-IIB in the vicinity of the cell membrane,NMHC-IIB,decreased significantly
same,HSV-1 infection,HSV-1 GFP [4],dose-independently inhibited
same,HSV-2 GFP infection,HSV-2 GFP,dose-independently inhibited
same,enhancement of phosphorylation of RLC by HSV-1 infection,phosphorylation of RLC,inhibits this enhancement
same,survival rate of mice,HSV-1(F); 20 μM ML-7 instilled before infection,significant increase
same,symptoms of keratitis,"HSV-1(F); 20 μM ML-7 instilled before infection, after five days, vs untreated mice",significant decrease
same,virus titer in the tear,"HSV-1(F); 20 μM ML-7 instilled before infection, two days after virus inoculation, vs untreated mice",significant decrease
same,survival rate of mice,"HSV-1(F); 20 μM ML-7 instilled simultaneously with HSV-1(F), observation 21 days",further significant increase
same,Infection with HSV-1 GFP,HSV-1 GFP [1],inhibited dose-dependently
same,HSV entry into Vero cells (relative fluorescence intensity),HSV-1 GFP [1]; […],inhibited
